Source: patent US20100331315A1, “RHODANINES AND RELATED HETEROCYCLES AS KINASE INHIBITORS” (priority 2009, published 2010)
Like-named read-outs stand apart in the source and are kept apart here.

Experiments:
[1] = system: PC-3 human prostatic cancer cells; assay: Alamar Blue cell proliferation assay, PC3; format: cell-based
Description: (§1) A representative cell-proliferation assay protocol using Alamar Blue dye (stored at 4° C., use 20 ul per well) is described hereafter.
(§2) a. Split and trypsinize cells.
(§3) b. Count cells using hemocytometer.
(§4) c. Plate 4,000-5,000 cells per well in 100 μl of medium and seed into a 96-well plate according to the following plate layout. Add cell culture medium only to wells B10 to B12. Wells B1 to B9 have cells but no compound added.
(§5) d. Add 100 μl of 2× drug dilution to each well in a concentration shown in the plate layout above. At the same time, add 100 μl of media into the control wells (wells B10 to B12). Total volume is 200 μl/well.
(§6) e. Incubate four (4) days at 37° C., 5% CO2 in a humidified incubator.
(§7) f. Add 20 μl Alamar Blue reagent to each well.
(§8) g. Incubate for four (4) hours at 37° C., 5% CO2 in a humidified incubator.
(§9) h. Record fluorescence at an excitation wavelength of 544 nm and emission wavelength of 590 nm using a microplate reader.
(§10) In the assays, cells are cultured with a test compound for approximately four days, the dye is then added to the cells and fluorescence of […] dye is detected after approximately four hours. Different types of cells can be utilized in the assays (e.g., HCT-116 human colorectal carcinoma cells, PC-3 human prostatic cancer cells and MiaPaca human pancreatic carcinoma cells).

[2] = system: MiaPaca human pancreatic carcinoma cells; assay: Alamar Blue cell proliferation assay, MiaPaCa; format: cell-based
Description: as §1, §2, §3, §4, §5, §6, §7, §8, §9, §10

MV-4-11 = assay: Alamar Blue cell proliferation assay, MV-4-11; format: cell-based; details: Homo sapiens
Description: as §1, §2, §3, §4, §5, §6, §7, §8, §9, §10

recombinant PIM-1 = recombinant PIM-1 (Homo sapiens, UniProt P11309); assay: PIM-1 assay (33P-ATP filter plate); format: biochemical; details: read-out: PIM1: IC50
Description: The following procedure was used to assay the PIM-1 kinase activity of compounds of the invention. Other methods for assaying PIM-1 and other PIM kinases, as well as methods to assay for activity against the various kinases are known in the art.
In a final reaction volume of 50 ul, recombinant PIM-1 (1 ng) was incubated with 12 mM MOPS pH 7.0, 0.4 mM EDTA, glycerol 1%, brij 35 0.002%, 2-mercaptoethanol 0.02%, BSA 0.2 mg/ml, 100 uM KKRNRTLTK, 10 mM MgAcetate, 15 uM ATP, [γ-^33P-ATP] (specific activity approx. 500 cpm/pmol), DMSO 4% and test inhibitor compound at the required concentration. The reaction was initiated by the addition of the Magnesium ATP mixture. After 40 min incubation at 23° C., the reactions were quenched by the addition of 100 ul 0.75% Phosphoric acid, and the labeled peptide collected by filtration through a phosphocellulose filter plate. The plate was washed 4 times with 0.075% phosphoric acid (100 ul per well) and then, after the addition of scintillation fluid (20 ul per well), the counts were measured by a scintillation counter.

recombinant human CK2 = target: T1, recombinant human CK2 (Homo sapiens, UniProt P68400); assay: CK2 assay (cell-free, 33P-ATP filter plate); format: biochemical
T1 construct: purchased Upstate
Description: Modulatory activity of compounds described herein was assessed in vitro in cell-free CK2 assays by the following method.
Test compounds in aqueous solution were added at a volume of 10 microliters, to a reaction mixture comprising 10 microliters Assay Dilution Buffer (ADB; 20 mM MOPS, pH 7.2, 25 mM beta-glycerolphosphate, 5 mM EGTA, 1 mM sodium orthovanadate and 1 mM dithiothreitol), 10 microliters of substrate peptide (RRRDDDSDDD, dissolved in ADB at a concentration of 1 mM), 10 microliters of recombinant human CK2 (25 ng dissolved in ADB; Upstate). Reactions were initiated by the addition of 10 microliters of ATP Solution (90% 75 mM MgCl2, 75 micromolar ATP dissolved in ADB; 10% [γ-^33P]ATP (stock 1 mCi/100 μl; 3000 Ci/mmol (Perkin Elmer) and maintained for 10 minutes at 30 degrees C. The reactions were quenched with 100 microliters of 0.75% phosphoric acid, then transferred to and filtered through a phosphocellulose filter plate (Millipore). After washing each well 5 times with 0.75% phosphoric acid, the plate was dried under vacuum for 5 min and, following the addition of 15 ul of scintillation fluid to each well, the residual radioactivity was measured using a Wallac luminescence counter.

K-562 = assay: Alamar Blue cell proliferation assay, K-562; format: cell-based; details: Homo sapiens
Description: as §1, §2, §3, §4, §5, §6, §7, §8, §9, §10

MDAMB231 = assay: Alamar Blue cell proliferation assay, MDAMB231; format: cell-based; details: Homo sapiens
Description: as §1, §2, §3, §4, §5, §6, §7, §8, §9, §10

[3] = PC3, Table 2, read-out: AB: PC3 IC50
[4] = MIA PaCa-2, Table 2, read-out: AB: MiaPaCa IC50
[5] = MV4-11, MV-4-11, Table 2, read-out: AB: MV-4-11 IC50
[6] = K562, K-562, Table 2, read-out: AB: K-562 IC50
[7] = MDA-MB-231, MDAMB231, Table 2, read-out: AB: MDAMB231 IC50
[8] = PC-3, PC3, Table 1, read-out: AB: PC3
[9] = MIA PaCa-2, Table 1, read-out: AB: MiaPaCa IC50
[10] = MV4-11, MV-4-11, Table 1, read-out: AB: MV-4-11 IC50
[11] = K562, K-562, Table 1, read-out: AB: K-562 IC50
[12] = MDA-MB-231, MDAMB231, Table 1, read-out: AB: MDAMB231 IC50

recombinant PIM-1, sequence (P11309 whole entry): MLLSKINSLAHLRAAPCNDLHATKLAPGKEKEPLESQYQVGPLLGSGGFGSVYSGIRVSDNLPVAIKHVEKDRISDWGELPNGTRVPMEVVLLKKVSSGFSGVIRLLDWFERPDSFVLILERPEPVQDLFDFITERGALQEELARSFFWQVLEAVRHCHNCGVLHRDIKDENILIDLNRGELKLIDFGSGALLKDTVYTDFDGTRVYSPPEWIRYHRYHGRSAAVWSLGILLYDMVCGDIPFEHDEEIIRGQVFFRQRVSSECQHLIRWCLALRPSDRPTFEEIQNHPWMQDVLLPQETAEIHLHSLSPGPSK
T1 sequence (P68400 whole entry): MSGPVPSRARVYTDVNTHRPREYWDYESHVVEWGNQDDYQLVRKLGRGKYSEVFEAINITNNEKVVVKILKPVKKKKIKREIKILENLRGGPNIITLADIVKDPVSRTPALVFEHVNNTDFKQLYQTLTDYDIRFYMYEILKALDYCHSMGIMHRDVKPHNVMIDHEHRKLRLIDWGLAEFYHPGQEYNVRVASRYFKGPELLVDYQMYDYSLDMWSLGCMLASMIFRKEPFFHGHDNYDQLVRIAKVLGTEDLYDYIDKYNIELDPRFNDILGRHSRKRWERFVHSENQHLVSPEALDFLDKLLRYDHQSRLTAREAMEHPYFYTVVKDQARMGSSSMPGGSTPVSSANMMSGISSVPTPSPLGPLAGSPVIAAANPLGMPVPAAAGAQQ
T1 sequence (P67870 whole entry partner): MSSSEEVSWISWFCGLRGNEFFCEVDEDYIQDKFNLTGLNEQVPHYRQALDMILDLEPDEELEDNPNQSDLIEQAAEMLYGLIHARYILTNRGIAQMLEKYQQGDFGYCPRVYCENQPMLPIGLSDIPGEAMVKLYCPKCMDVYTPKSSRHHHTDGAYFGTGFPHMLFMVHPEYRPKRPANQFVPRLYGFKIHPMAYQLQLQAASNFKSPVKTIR

| Compound | IC50 [1, 3] [µM] | IC50 [2, 4] [µM] | IC50 (MV-4-11; [5]) [µM] | IC50 (recombinant PIM-1; Table 2) [µM] | IC50 (recombinant human CK2; Table 2) [µM] | IC50 (K-562; [6]) [µM] | IC50 (MDAMB231; [7]) [µM] | IC50 [1, 8] [µM] | IC50 [2, 9] [µM] | IC50 (MV-4-11; [10]) [µM] | IC50 (recombinant PIM-1; Table 1) [µM] | IC50 (recombinant human CK2; Table 1) [µM] | IC50 (K-562; [11]) [µM] | IC50 (MDAMB231; [12]) [µM] |
| --- | --- | --- | --- | --- | --- | --- | --- | --- | --- | --- | --- | --- | --- | --- |
| O=C1NC(=O)/C(=C\c2ccc(-c3ccc(C(=O)O)cc3)o2)S1 | > 30 | > 10 | > 1 | 0.041 | 0.009 | > 10 | > 10 | – | – | – | – | – | – | – |
| CCN(CC)CCNC(=O)c1ccc(-c2ccc(/C=C3\SC(=S)NC3=O)o2)cc1 | – | – | – | – | – | – | – | > 30 | > 10 | > 10 | 0.006 | 0.131 | > 10 | > 10 |
| Cc1nccn1CCNC(=O)c1ccc(-c2ccc(/C=C3\SC(=S)NC3=O)o2)cc1 | – | – | – | – | – | – | – | > 30 | > 10 | > 10 | 0.014 | 0.226 | > 10 | > 10 |
| O=C1NC(=S)S/C1=C\c1ccc(-c2cccc(C(=O)NNc3ccnc4cc(Cl)ccc34)c2)o1 | – | – | – | – | – | – | – | > 30 | > 10 | > 10 | 0.146 | 0.266 | > 10 | > 10 |
| CCNC(=O)c1cccc(-c2ccc(/C=C3\SC(=S)NC3=O)o2)c1 | – | – | – | – | – | – | – | > 30 | > 10 | > 10 | 0.028 | 0.264 | > 10 | > 10 |
| O=C1NC(=S)S/C1=C\c1ccc(-c2cccc(C(=O)NN3CCCCC3)c2)o1 | – | – | – | – | – | – | – | > 30 | > 10 | > 10 | 0.086 | 0.551 | > 10 | > 10 |
| O=C1NC(=S)S/C1=C\c1ccc(-c2cccc(C(=O)N3CC[C@H](F)C3)c2)o1 | – | – | – | – | – | – | – | > 30 | > 10 | 9.5 | 0.013 | 0.012 | > 10 | > 10 |
| CN1CCCN(C(=O)c2cccc(-c3ccc(/C=C4/SC(=O)NC4=O)o3)c2)CC1 | > 30 | > 10 | > 1 | 0.111 | 0.011 | > 10 | > 10 | – | – | – | – | – | – | – |
| O=C1NC(=S)S/C1=C\c1ccc(-c2cccc(C(=O)N3CCC[C@H]3CO)c2)o1 | – | – | – | – | – | – | – | > 30 | > 10 | 0.175 | 0.012 | 0.037 | > 10 | > 10 |
| CC(=O)NC1CCN(C(=O)c2cccc(-c3ccc(/C=C4\SC(=S)NC4=O)o3)c2)C1 (stereo not shown) | – | – | – | – | – | – | – | > 30 | > 10 | > 10 | 0.038 | 0.444 | > 10 | > 10 |
| Cn1cncc1CNC(=O)c1ccc(-c2ccc(/C=C3\SC(=S)NC3=O)o2)cc1 | – | – | – | – | – | – | – | > 30 | > 10 | > 10 | 0.035 | 0.108 | > 10 | > 10 |
| O=C1NC(=S)S/C1=C\c1ccc(-c2cc(C(=O)O)ccc2Cl)o1 | – | – | – | – | – | – | – | > 30 | > 10 | > 10 | 0.199 | 0.027 | > 10 | > 10 |
| COCCNC(=O)c1cccc(-c2ccc(/C=C3\SC(=S)NC3=O)o2)c1 | – | – | – | – | – | – | – | > 30 | > 10 | > 10 | 0.031 | 0.123 | > 10 | > 10 |
| O=C1NC(=S)S/C1=C\c1ccc(-c2ccccc2)o1 | – | – | – | – | – | – | – | > 10 | > 10 | > 10 | 0.059 | 0.004 | > 10 | > 10 |
| NCCN1CCN(C(=O)c2ccc(-c3ccc(/C=C4\SC(=S)NC4=O)o3)cc2)CC1 | – | – | – | – | – | – | – | > 30 | > 10 | > 1 | 0.019 | 0.196 | > 10 | > 10 |
| O=C1NC(=S)S/C1=C\c1ccc(-c2cccc(C(=O)NN3CCN(CCO)CC3)c2)o1 | – | – | – | – | – | – | – | > 30 | > 10 | > 10 | 0.162 | 0.288 | > 10 | > 10 |
| O=C1NC(=S)S/C1=C\c1ccc(-c2cccc(C(=O)N3CCCNCC3)c2)o1 | – | – | – | – | – | – | – | > 30 | > 10 | > 10 | 0.009 | 0.412 | > 10 | > 10 |
| CN1CCCN(C(=O)c2ccc(-c3ccc(/C=C4/SC(=O)NC4=O)o3)cc2)CC1 | > 30 | > 10 | > 1 | 0.266 | 0.43 | > 10 | > 10 | – | – | – | – | – | – | – |
| CN1CCCCC1CNC(=O)c1ccc(-c2ccc(/C=C3\SC(=S)NC3=O)o2)cc1 (stereo not shown) | – | – | – | – | – | – | – | > 30 | > 10 | > 10 | 0.037 | 0.471 | > 10 | > 10 |
